From article PMC2360155, “Novel retinoic acid metabolism blocking agents have potent inhibitory activities on human breast cancer cells and tumour growth” (British Journal of Cancer, 2007)

What was measured:
[1] = tested on: cyclin D1; experiment: Western blotting for cyclin D1 in T47D cells; assay type: cell-based, human; conditions: 1, 5 and 10 μM, 6 days
Protocol: (§1) At the end of the treatment, cells were scrapped and collected by washing with ice-cold PBS in a centrifuge tube. Cells were centrifuged at 2500 r.p.m. for 10 min, the pellet was again washed with ice-cold PBS and centrifuged. The cell pellet was then suspended in chilled cell lysis buffer (0.1 M Tris–HCl, 0.5% Triton X-100, protease inhibitor cocktail) and sonicated on ice for 10–15 s. The homogenate was kept on ice for 30 min and then centrifuged at 13 000 r.p.m. for 30 min. The supernatant was used as cell lysate. The cell lysates were stored at −80°C. Protein concentration of the cell lysates was determined using Bio-Rad protein assay reagents.
(§2) Protein lysates from MCF-7 and T47D cells were subjected to sodium dodecyl sulphate–polyacrylamide gel electrophoresis (SDS–PAGE) and immunoblotted for different proteins. […] Immunoreactive bands were visualised using the enhanced chemiluminescence detection reagents and analysis system (Amersham Bioscences) according to the manufacturer's instructions and quantified by densitometry using ImageQuant software version 5.
(§3) Figure 5 Western blotting of whole-cell lysates of treated MCF-7 and T47D cells for the expression of Cyclin D1. […] Numbers below the blot show fold decrease in expression of the protein as analysed by ImageQuant densitometry analysis. […]

[2] = tested on: AP1 activity; experiment: Anti-AP1 assay (AP-1 CAT reporter, CV-1 cells cotransfected with RAR subtypes); assay type: cell-based; conditions: 10^−6 M; each of the three RAR subtypes cotransfected
Protocol: The ability of each RAMBA to inhibit AP1 activity was determined using anti-AP1 assays as we have described previously ([Soprano et al, 2000]). Briefly, CV-1 cells were cotransfected with 1.5 μg RAR subtype (RARα, RARβ and RARγ) expression vector construct in pSG5, 1.5 μg AP-1 CAT reporter DNA and 0.5 μg pCMV-β-gal DNA. […] Twenty-four hours later, the cells were harvested and CAT and β-gal activities were assayed. The percentage of AP-1 activity was calculated using the ethanol carrier control sample as 100%.

[3] = tested on: cyclin D1; experiment: Western blotting for cyclin D1 in MCF-7 cells; assay type: cell-based, human; conditions: 6 days (4HPR 4 days)
Protocol: as §1, §2, §3

[4] = tested on: MCF-7 cells; experiment: TUNEL apoptosis assay, MCF-7; assay type: cell-based, human; conditions: 5 μM; 6 days; control about 1.5%
Excerpt: (§4) The cells were rinsed with PBS and then the stained-labelled apoptotic cells were mounted using DAPI (diamidino-2-phenylindole 2HCl)-glycerol and visualised with a fluorescent microscope using two filters (1) for TUNEL stained cells, and (2) for DAPI stained cells, which represents all the cells (nuclei). Fluorescent microscope model was Nikon, Eclipse E400 and the software was SPOT advanced version 3.5.5 by Diagnostic Instruments Inc. (Sterling Heights, MI, USA).
(§5) Figure 6 Graphs showing apoptosis induced in (A) MCF-7 and (B) T47D cells as determined by TUNEL. […] TUNEL-stained apoptotic cells were counted against the DAPI stained cells to obtain percentage apoptosis. The experiments were repeated thrice with similar results. Error bars show s.e.m of three different fields of treated cells, statistically significant ^*P<0.01 and ^**P<0.001 vs control.

[5] = tested on: T47D cells; experiment: TUNEL apoptosis assay, T47D; assay type: cell-based, human; conditions: 5 μM; 6 days; control about 1.5%
Excerpt: as §4, §5

[6] = tested on: MDA-MB-231 cells; parameters: method as in Patel et al. (2004); conditions: inhibition of cell proliferation by 50%; ref Patel et al. (2004); read-out: Cellular IC50, MDA-MB-231; cited from earlier work

## CC1=C(/C=C/C(C)=C/C=C/C(C)=C/C(=O)O)C(C)(C)CCC1n1ccnc1 (stereo not drawn) [VN/14-1]
[1]
  Expression of cyclin D1 (in words): significantly downregulated
[2]
  Reduction of AP1-dependent transcription activity: 20–40%

## CC1=C(/C=C/C(C)=C/C=C/C(C)=C/C(=O)O)C(C)(C)CCC1 [ATRA, all-trans-retinoic acid, reference compound]
[3]
  Decrease of cyclin D1 protein expression compared with untreated control: > 80%

## CC1=C(/C=C/C(C)=C/C=C/C(C)=C\C(=O)Nc2ccc(O)cc2)C(C)(C)CCC1n1ccnc1 (stereo not drawn) [VN/69-1]
[4]
  Induction of apoptosis (TUNEL), MCF-7: least effective of the RAMBAs in inducing apoptosis
[5]
  Induction of apoptosis (TUNEL), T47D: least effective of the RAMBAs in inducing apoptosis

## CC1=C(/C=C/C(C)=C/C=C/C(C)=C/C(=O)Nc2ccc(O)cc2)C(C)(C)CCC1n1ccnc1 (stereo not drawn) [VN/66-1]
[6]
  IC50: 5.62 µM
